Reference: patent US11535595B2, “Isoquinoline sulfonyl chloride acid addition salts and method of manufacture thereof” (D. WESTERN THERAPEUTICS INSTITUTE, INC., priority 2018, dated 2022)

SMILES	melting point
c1ccc(CSc2ccc3cnccc3c2)cc1 [compound (4), 6-(benzylthio)isoquinoline]	80 °C
Cl.O=S(=O)(Cl)c1ccc2cnccc2c1	102 °C (dec.)
